Laboratory results as given in patent publication US11622947B2, “Compositions comprising quillaja extract and methods of preparations and use thereof” (American River Nutrition, LLC, priority 2019, dated 2023).
Entries after “also recorded” stand apart in the source; their conditions may differ. Read-outs that look alike come from different tables or passages of the source.

Experiments:
[1] = Dispersibility / sedimentation of active powder with quillaja powder in DI water (time-dependent trial); assay type: physicochemical; settings: for Relative Dispersibilities without quillaja powder: FIGS. 1-6
Protocol: This example sets forth compositions and methods for making compositions of one active ingredient with quillaja powder. Each of the compositions is prepared by mixing one active ingredient with quillaja powder at a fixed ratio of about 75:25, about 60:40, about 50:50, about 40:60, or about 25:75. This example also sets forth methods to test the dispersibilities of the resulting compositions.
• 1. Add 5 mL DI water to 15 mL disposable glass test tube • 2. Weight out Active ingredient (back weigh for accuracy) • a. For 100% active ingredient, weigh out close to the target amount, note the weight, then zero the balance (with active ingredient still on it) • b. Add active ingredient to test tube with DI water • c. Place mostly empty powder weight boat back onto scale and record actual weight added • d. For other mixtures of active ingredient and quillaja powder, perform similar but add to new weight boat to mix powders (instead of adding directly to test tube) • 3. Weigh out quillaja powder (back weigh for accuracy) • a. Weigh out close to target amount of quillaja, note the weight, then zero the balance (with quillaja still on it) • b. Add quillaja to mixture weight boat (with active) • c. Place mostly empty quillaja weigh boat back onto scale and record actual weight added • 4. Repeat for all ratios of powder mixtures below (dose-dependent study):
• 5. Mix powders together • 6. Add powder mixture to the test tube with DI water. Vortex for exactly 2 minutes and perform time-dependent study • 7. Let settle for 10 minutes then take picture/note observations such as degree of turbidity, dispersibility, any large solids, etc. • 8. After 30 minutes (total), take picture/note observations • 9. After 2 hours (total), take picture/note observations • 10. After 4 hours (total), take picture/note observations • 11. Take special note of the size of the solid “pellet” that settles out on the bottom • a. Try to measure its size (estimated) by taking the radius/diameter combined with the height
This example sets forth compositions of CoQ10 powder and quillaja powder at fixed ratios of 100:0, about 75:25, about 60:40, about 50:50, about 40:60, and about 25:75 respectively. As used herein in Example A2, CoQ10 powder is ubiquinone powder as CoQ10(ubiquinone) powder. The compositions have been prepared according to experimental procedures in Example 1A. A time-dependent trial of sedimentation rates of the compositions comprising ubiquinone powder and quillaja powder at different ratios in water was conducted at time points of 10 minutes, 30 minutes, 2 hours, and 4 hours are shown in FIG. 1. Regarding the test tubes in each of the pictures of FIG. 1, from right to left, the weight ratios of CoQ10(ubiquinone) powder to quillaja powder are in the order of 100:0, about 75:25, about 60:40, about 50:50, about 40:60, and about 25:75 respectively. […] Increasing extent of turbidity was indicative of the highest dispersibility and solubility.
This example sets forth comparisons of the dispersibilities for compositions of Examples A2-A7, which comprise various active ingredients mixed with quillaja powder at various fixed ratios. After comparing the results shown in FIGS. 1-6, the relative dispersibilities are as following: • a) Relative Dispersibilities without quillaja powder: Quercetin>Berberine>Resveratrol>Curcumin>DIM>CoQ10(ubiquinone) • b) Relative Dispersibilities with quillaja powder at time point of 30 minute or less: Quercetin>(Curcumin=Resveratrol)>(DIM=Berberine)>CoQ10(ubiquinone) • c) Relative Dispersibilities with quillaja powder at time point of 2 hours or more Quercetin>(DIM=Curcumin=Resveratrol)>Berberine>CoQ10(ubiquinone)

[2] = Surface tension interaction by visual observation of glass smearing above the water level; assay type: physicochemical
Protocol: This example sets forth comparisons of the surface tension interactions of the compositions of Example A2-A7. The surface tension interactions of the compositions of various active ingredients mixed with quillaja powder at various fixed ratios were specifically compared with those of the compositions of various active ingredients without quillaja powder. Surface tension interaction is determined by visual observation of glass smearing of active ingredient powders above the water level. • a) Relative surface tension interaction without quillaja powder: (CoQ10(ubiquinone)≥Curcumin)>(Resveratrol≥DIM)>(Quercetin≥Berberine) • b) Relative surface tension interaction with quillaja powder: […]

[3] = Bioaccessibility of ubiquinol by simulated in vitro digestion; assay type: in vitro ADME; settings: HPLC of filtered supernatant
Source text: In some embodiments, methods of increasing the bioaccessibility and/or bioavailability of an active ingredient in a subject are provided. The active ingredient can be any active ingredients, such as, but not limited to, those described herein. In some embodiments, the methods comprise administering to the subject any of the compositions provided for herein. The administration can be by any method, such as those described herein. […] An increase in bioaccessibility can be determined by any suitable method. For example, bioaccessibility can be measured by simulated in vitro digestion. […] Without being bound to any particular method, in some embodiments, bioaccessibility is determined by mixing a sample (a composition) with a saliva solution and, optionally, mucin. […] The samples can then be analyzed by HPLC to determine the increase in bioaccessibility. Bioaccessibility can be calculated by dividing the amount of the at least one active ingredient measured by, for example HPLC, by the theoretical (or actual amount of ubiquinol in the sample)×100 to determine the percent bioaccessibility. […]
This example sets forth to test the effect of quillaja powder on bioaccessiblity of ubiquinol. Bioaccessibility of ubiquinol was measured by simulated in vitro digestion. […] Bioaccessibility (%)=(ubiquinol measured by HPLC/theoretical amount of ubiquinol in the sample)×100%.

[4] = active:quillaja 100:0, DI water, 10 minutes, 30 minutes, 2 hours, 4 hours

SMILES | dispersibility and solubility in water, tube without quillaja powder [1, 4] | Relative Dispersibilities with quillaja powder at time point of 30 minute or less [1] | Relative Dispersibilities with quillaja powder at time point of 2 hours or more [1] | Relative Dispersibilities without quillaja powder [1] | Relative surface tension interaction without quillaja powder [2] | Relative surface tension interaction without quillaja powder ([2]; listed as berberine) | dispersibility and solubility in water, tube without quillaja powder [1] | Relative surface tension interaction without quillaja powder ([2]; listed as curcumin) | Relative surface tension interaction without quillaja powder ([2]; listed as quercetin) | bioaccessibility of ubiquinol [3] [%]
COc1ccc2cc3[n+](cc2c1OC)CCc1cc2c(cc1-3)OCO2 [Berberine, berberine] | complete separation | Quercetin>(Curcumin=Resveratrol)>(DIM=Berberine)>CoQ10(ubiquinone) | Quercetin>(DIM=Curcumin=Resveratrol)>Berberine>CoQ10(ubiquinone) | Quercetin>Berberine>Resveratrol>Curcumin>DIM>CoQ10(ubiquinone) | (CoQ10(ubiquinone)≥Curcumin)>(Resveratrol≥DIM)>(Quercetin≥Berberine) | Lowest surface tension | – | – | – | –
COC1=C(OC)C(=O)C(C/C=C(\C)CC/C=C(\C)CC/C=C(\C)CC/C=C(\C)CC/C=C(\C)CC/C=C(\C)CC/C=C(\C)CC/C=C(\C)CC/C=C(\C)CCC=C(C)C)=C(C)C1=O [CoQ10(ubiquinone), ubiquinone] | – | Quercetin>(Curcumin=Resveratrol)>(DIM=Berberine)>CoQ10(ubiquinone) | Quercetin>(DIM=Curcumin=Resveratrol)>Berberine>CoQ10(ubiquinone) | Quercetin>Berberine>Resveratrol>Curcumin>DIM>CoQ10(ubiquinone) | (CoQ10(ubiquinone)≥Curcumin)>(Resveratrol≥DIM)>(Quercetin≥Berberine); also recorded: Highest surface tension | – | complete separation | – | – | –
COc1cc(/C=C/C(=O)CC(=O)/C=C/c2ccc(O)c(OC)c2)ccc1O [Curcumin, curcumin] | complete separation | Quercetin>(Curcumin=Resveratrol)>(DIM=Berberine)>CoQ10(ubiquinone) | Quercetin>(DIM=Curcumin=Resveratrol)>Berberine>CoQ10(ubiquinone) | Quercetin>Berberine>Resveratrol>Curcumin>DIM>CoQ10(ubiquinone) | (CoQ10(ubiquinone)≥Curcumin)>(Resveratrol≥DIM)>(Quercetin≥Berberine) | – | – | Highest surface tension | – | –
O=c1c(O)c(-c2ccc(O)c(O)c2)oc2cc(O)cc(O)c12 [Quercetin, quercetin] | – | Quercetin>(Curcumin=Resveratrol)>(DIM=Berberine)>CoQ10(ubiquinone) | Quercetin>(DIM=Curcumin=Resveratrol)>Berberine>CoQ10(ubiquinone) | Quercetin>Berberine>Resveratrol>Curcumin>DIM>CoQ10(ubiquinone) | (CoQ10(ubiquinone)≥Curcumin)>(Resveratrol≥DIM)>(Quercetin≥Berberine) | – | complete separation | – | Lowest surface tension | –
Oc1ccc(C=Cc2cc(O)cc(O)c2)cc1 [Resveratrol, resveratrol] | complete separation | Quercetin>(Curcumin=Resveratrol)>(DIM=Berberine)>CoQ10(ubiquinone) | Quercetin>(DIM=Curcumin=Resveratrol)>Berberine>CoQ10(ubiquinone) | Quercetin>Berberine>Resveratrol>Curcumin>DIM>CoQ10(ubiquinone) | (CoQ10(ubiquinone)≥Curcumin)>(Resveratrol≥DIM)>(Quercetin≥Berberine) | – | – | – | – | –
COc1c(O)c(C)c(C/C=C(\C)CC/C=C(\C)CC/C=C(\C)CC/C=C(\C)CC/C=C(\C)CC/C=C(\C)CC/C=C(\C)CC/C=C(\C)CC/C=C(\C)CCC=C(C)C)c(O)c1OC [sample A, ubiquinol] | – | – | – | – | – | – | – | – | – | 0.88
